Assay results: ChEMBL document CHEMBL1137304, “Fluorinated conformationally restricted gamma-aminobutyric acid aminotransferase inhibitors” (J Med Chem, 2006)

What was measured:
[1] = target: 4-aminobutyrate aminotransferase, mitochondrial (Sus scrofa, UniProt P80147); assay: Inhibition of pig brain GABA-AT in presence of beta-mercaptoethanol
[2] = target: 4-aminobutyrate aminotransferase, mitochondrial (Sus scrofa) (UniProt P80147); assay: Inhibition of pig brain GABA-AT in presence of beta-mercaptoethanol at 0.2 M; conditions: TDE = time-dependent effect
4-aminobutyrate aminotransferase, mitochondrial (Sus scrofa), sequence (P80147 whole entry): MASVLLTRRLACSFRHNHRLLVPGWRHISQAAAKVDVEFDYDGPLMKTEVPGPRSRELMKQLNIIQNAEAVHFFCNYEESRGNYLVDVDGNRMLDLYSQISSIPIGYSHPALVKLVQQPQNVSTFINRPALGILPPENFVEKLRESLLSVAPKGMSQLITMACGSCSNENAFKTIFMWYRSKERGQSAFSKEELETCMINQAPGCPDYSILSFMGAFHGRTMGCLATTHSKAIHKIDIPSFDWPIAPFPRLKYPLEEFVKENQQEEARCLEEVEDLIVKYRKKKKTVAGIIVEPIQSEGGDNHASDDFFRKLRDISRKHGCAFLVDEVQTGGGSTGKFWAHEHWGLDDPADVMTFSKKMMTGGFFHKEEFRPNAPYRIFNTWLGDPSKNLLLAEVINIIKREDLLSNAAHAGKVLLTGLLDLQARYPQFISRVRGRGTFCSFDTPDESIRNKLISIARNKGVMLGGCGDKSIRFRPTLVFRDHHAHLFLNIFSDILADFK

[3] = target: 4-aminobutyrate aminotransferase, mitochondrial (Sus scrofa) (UniProt P80147); assay: Residual activity at pig brain GABA-AT assessed by exhaustive dialysis at 0.2 M after 22 hrs relative to control

4-aminobutyrate aminotransferase, mitochondrial, sequence (P80147 whole entry): as above

| Ki [1] | Activity [2] | Activity [3] | Structure (SMILES) |
| --- | --- | --- | --- |
| 1.3 mM |  |  | N[C@H]1C[C@@H](C(=O)O)C=C1F |
| 7.74 mM | tde |  | N[C@H]1C[C@@H](C(=O)O)C/C1=C/C(F)(F)F |
| 4.2 mM |  |  | N[C@H]1C[C@@H](C(=O)O)CC1=C(C(F)(F)F)C(F)(F)F |
| 39.2 mM | tde | 13% | N[C@H]1C[C@@H](C(=O)O)CC1=CC(F)(F)F |
| 4.11 mM | tde | 48% | N[C@H]1C[C@@H](C(=O)O)C=C1C(F)(F)F |
| 2.8 mM |  |  | N[C@H]1C[C@@H](C(=O)O)C=C1C(F)(F)C(F)(F)F |
